Target: T1, human PDE2A1 (Homo sapiens, UniProt O00408)
T1 construct: GST; purchased BPS Bioscience (San Diego, Calif.) 60020; host or cells: insect cells
Assay: IMAP FP PDE assay, human PDE2A1
Format: biochemical
Settings: Lab B; read-out: Human PDE2 Ki (nM) Lab B
In short: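 GST-tagged human PDE2A1 from insect cells; substrate 50 nM FAM-cAMP containing 1000 nM cGMP in Tris pH 7.2/MgCl2/DTT buffer, enzyme giving 20% conversion. 60 min at room temperature, IMAP binding reagent, fluorescence polarization read. Apparent Ki from FP readings using apparent KM 10,000 nM; ten-point 3-fold titrations.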

T1 sequence (O00408 1-920 isoform O00408-2): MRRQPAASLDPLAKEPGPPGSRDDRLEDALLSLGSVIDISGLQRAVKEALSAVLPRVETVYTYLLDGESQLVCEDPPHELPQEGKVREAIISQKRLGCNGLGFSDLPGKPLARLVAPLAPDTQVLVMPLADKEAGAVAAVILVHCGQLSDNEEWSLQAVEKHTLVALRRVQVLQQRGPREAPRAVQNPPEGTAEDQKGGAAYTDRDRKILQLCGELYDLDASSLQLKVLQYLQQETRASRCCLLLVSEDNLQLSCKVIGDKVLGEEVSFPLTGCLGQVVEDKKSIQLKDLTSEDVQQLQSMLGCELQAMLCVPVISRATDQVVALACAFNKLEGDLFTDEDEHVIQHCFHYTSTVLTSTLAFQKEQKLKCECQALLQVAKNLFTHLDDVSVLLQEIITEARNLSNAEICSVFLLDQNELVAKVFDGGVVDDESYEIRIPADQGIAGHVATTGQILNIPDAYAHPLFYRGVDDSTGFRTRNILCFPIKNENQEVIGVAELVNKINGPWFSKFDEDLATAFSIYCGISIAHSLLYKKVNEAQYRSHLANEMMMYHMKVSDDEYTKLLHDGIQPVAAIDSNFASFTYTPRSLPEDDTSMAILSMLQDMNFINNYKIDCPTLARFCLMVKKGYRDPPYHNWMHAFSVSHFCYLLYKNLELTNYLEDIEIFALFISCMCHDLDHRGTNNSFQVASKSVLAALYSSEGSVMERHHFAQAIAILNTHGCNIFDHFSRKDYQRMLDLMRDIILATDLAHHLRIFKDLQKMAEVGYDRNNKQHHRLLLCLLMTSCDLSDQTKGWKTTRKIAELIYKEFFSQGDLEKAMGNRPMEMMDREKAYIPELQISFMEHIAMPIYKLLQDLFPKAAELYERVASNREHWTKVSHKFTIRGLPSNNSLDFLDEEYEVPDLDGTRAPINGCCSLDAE

Structure (SMILES) | Ki [nM]
CC(c1ccc(C(F)(F)F)cc1)n1nc(C(F)F)c2c(=O)[nH]c(C3CC3)nc21 (single isomer, unassigned) [Example 192, (S)- or (R)-6-Cyclopropyl-3-(difluoromethyl)-1-(1-(4-(trifluoromethyl)phenyl)ethyl)-1,5-dihydro-4H-pyrazolo[3,4-d]pyrimidin-4-one] | 3.4
Cc1nc2c(c(CO)nn2C(C)c2ccc(Cl)s2)c(=O)[nH]1 (single isomer, unassigned) [Example 154, (S)- or (R)-1-(1-(5-Chlorothiophen-2-yl)ethyl)-3-(hydroxymethyl)-6-methyl-1H-pyrazolo[3,4-d]pyrimidin-4(5H)-one] | 18
Cc1nc2c(c(CO)nn2C(C)c2ccc(C(F)(F)F)cc2C)c(=O)[nH]1 (single isomer, unassigned) [Example 108, (R)- or (S)-3-(Hydroxymethyl)-6-methyl-1-(1-(2-methyl-4-(trifluoromethyl)phenyl)ethyl)-1H-pyrazolo[3,4-d]pyrimidin-4(5H)-one] | ~1280
Cc1nc2c(c(C(=O)N(C)C)nn2C(C)c2ccc(C(F)(F)F)cc2)c(=O)[nH]1 (single isomer, unassigned) [Example 266, (R)- or (S)-N,N,6-Trimethyl-4-oxo-1-(1-(4-(trifluoromethyl)phenyl)ethyl)-4,5-dihydro-1H-pyrazolo[3,4-d]pyrimidine-3-carboxamide] | 654
Cc1nc2c(c(CO)nn2C(C)c2ccc(C(C)(F)F)cc2)c(=O)[nH]1 (single isomer, unassigned) [Example 117, (S)- or (R)-1-(1-(4-(1,1-Difluoroethyl)phenyl)ethyl)-3-(hydroxymethyl)-6-methyl-1H-pyrazolo[3,4-d]pyrimidin-4(5H)-one] | 1.1
Cc1nc2c(c(CO)nn2C(CC(F)(F)F)c2ccc(C(F)(F)F)cc2)c(=O)[nH]1 (single isomer, unassigned) [Example 97, (S)- or (R)-3-(Hydroxymethyl)-6-methyl-1-(3,3,3-trifluoro-1-(4-(trifluoromethyl)phenyl)propyl)-1H-pyrazolo[3,4-d]pyrimidin-4(5H)-one] | 467
Cc1nc2c(c(C(N)=O)nn2C(C)c2ccc(C(F)(F)F)cc2)c(=O)[nH]1 (single isomer, unassigned) [Example 256] | 86
Cc1nc2c(c(CO)nn2C(C)c2ccc(C(F)(F)F)cc2F)c(=O)[nH]1 (single isomer, unassigned) [Example 16, (R)- or (S)-1-(1-(2-Fluoro-4-(trifluoromethyl)phenyl)ethyl)-3-(hydroxymethyl)-6-methyl-1H-pyrazolo[3,4-d]pyrimidin-4(5H)-one] | 81
COCC(c1ccc(C(F)(F)F)cc1)n1nc(CO)c2c(=O)[nH]c(C)nc21 (single isomer, unassigned) [Example 101, (S)- or (R)-3-(Hydroxymethyl)-1-(2-methoxy-1-(4-(trifluoromethyl)phenyl)ethyl)-6-methyl-1H-pyrazolo[3,4-d]pyrimidin-4(5H)-one] | 13
Cc1nc2c(c([C@@H](C)CO)nn2[C@@H](C)c2ccc(C(F)(F)F)cc2)c(=O)[nH]1 (single isomer, unassigned) [Example 320] | 1.2
COCc1nc2c(c(CO)nn2C(C)c2ccc(S(F)(F)(F)(F)F)cc2)c(=O)[nH]1 (single isomer, unassigned) [Example 318, (S)- or (R)-3-(Hydroxymethyl)-6-(methoxymethyl)-1-{1-[4-(pentafluorosulfanyl)phenyl]ethyl}-1,5-dihydro-4H-pyrazolo[3,4-d]pyrimidin-4-one] | 3.8
Cc1nc2c(c(CO)nn2C(C)c2ccc(C3(C(F)(F)F)CC3)cc2)c(=O)[nH]1 (single isomer, unassigned) [Example 80] | 624
Cc1nc2c(c(CO)nn2C(C)c2ccc(C(F)(F)F)nn2)c(=O)[nH]1 (single isomer, unassigned) [Example 146, (S)- or (R)-3-(Hydroxymethyl)-6-methyl-1-(1-(6-(trifluoromethyl)pyridazin-3-yl)ethyl)-1H-pyrazolo[3,4-d]pyrimidin-4(5H)-one] | 58
CCCc1nc2c(c(CO)nn2C(C)c2ccc(C(F)(F)F)cc2)c(=O)[nH]1 (single isomer, unassigned) [Example 303, (R)- or (S)-3-(Hydroxymethyl)-6-propyl-1-(1-(4-(trifluoromethyl)phenyl)ethyl)-1,5-dihydro-4H-pyrazolo[3,4-d]pyrimidin-4-one] | 4.7
Cc1nc2c(c(CO)nn2C(C)c2cnn(CC(F)(F)F)c2)c(=O)[nH]1 (single isomer, unassigned) [Example 150, (S)- or (R)-3-(Hydroxymethyl)-6-methyl-1-(1-(1-(2,2,2-trifluoroethyl)-1H-pyrazol-4-yl)ethyl)-1H-pyrazolo[3,4-d]pyrimidin-4(5H)-one] | 158
Cc1nc2c(c(CO)nn2C(C)c2ccc(C(F)(F)F)cc2C)c(=O)[nH]1 (single isomer, unassigned) [Example 109, (S)- or (R)-3-(Hydroxymethyl)-6-methyl-1-(1-(2-methyl-4-(trifluoromethyl)phenyl)ethyl)-1H-pyrazolo[3,4-d]pyrimidin-4(5H)-one] | 1.9

Structure (SMILES) | Ki [nM]
Cc1nc2c(c(C(=O)NCC(F)(F)F)nn2C(C)c2ccc(C(F)(F)F)cc2)c(=O)[nH]1 (single isomer, unassigned) [Example 269, (S)- or (R)-6-Methyl-4-oxo-N-(2,2,2-trifluoroethyl)-1-(1-(4-(trifluoromethyl)phenyl)ethyl)-4,5-dihydro-1H-pyrazolo[3,4-d]pyrimidine-3-carboxamide] | ~1430
Cc1nc2c(c(CC(C)(C)O)nn2C(C)c2ccc(C(F)(F)F)cc2)c(=O)[nH]1 (stereo not shown) [Example 247, 3-(2-Hydroxy-2-methylpropyl)-6-methyl-1-(1-(4-(trifluoromethyl)phenyl)ethyl)-1H-pyrazolo[3,4-d]pyrimidin-4(5H)-one] | ~567
Cc1nc2c(c(CO)nn2C(C)c2ccc(S(F)(F)(F)(F)F)cc2F)c(=O)[nH]1 (single isomer, unassigned) [Example 120] | 496
Cc1nc2c(c(C(F)F)nn2C(C)c2ccc(S(F)(F)(F)(F)F)cc2)c(=O)[nH]1 (single isomer, unassigned) [Example 161] | 224
CCC(c1ccc(OC(F)(F)F)cc1)n1nc(CO)c2c(=O)[nH]c(C)nc21 (single isomer, unassigned) [Example 135, (S)- or (R)-3-(Hydroxymethyl)-6-methyl-1-(1-(4-(trifluoro-methoxy)phenyl)propyl)-1H-pyrazolo[3,4-d]pyrimidin-4(5H)-one] | 1
Cc1nc2c(c(-c3ccn[nH]3)nn2C(C)c2ccc(C(F)(F)F)cc2)c(=O)[nH]1 (single isomer, unassigned) [Example 236] | 76
Cc1nc2c(c(-c3cn[nH]c3)nn2C(C)c2ccc(C(F)(F)F)cc2)c(=O)[nH]1 (single isomer, unassigned) [Example 237] | 2.5
COCc1nc2c(c(CO)nn2C(C)c2ccc(S(F)(F)(F)(F)F)cc2)c(=O)[nH]1 (single isomer, unassigned) [Example 317, (R)- or (S)-3-(Hydroxy-methyl)-6-(methoxy-methyl)-1-{1-[4-(pentafluoro-sulfanyl)-phenyl]ethyl}-1,5-dihydro-4H-pyrazolo[3,4-d]pyrimidin-4-one] | 150
Cc1nc2c(c(C(F)(F)F)nn2C(C)c2ccc(C(F)(F)F)cc2)c(=O)[nH]1 (single isomer, unassigned) [Example 68, (R)- or (S)-6-Methyl-3-(trifluoromethyl)-1-(1-(4-(trifluoromethyl)phenyl)ethyl)-1H-pyrazolo[3,4-d]pyrimidin-4(5H)-one] | 8.6
Cc1nc2c(c(C(F)F)nn2C(c2ccc(C(F)(F)F)cc2)C(C)C)c(=O)[nH]1 (single isomer, unassigned) [Example 172, (S)- or (R)-3-(Difluoromethyl)-6-methyl-1-(2-methyl-1-(4-(trifluoromethyl)phenyl)propyl)-1H-pyrazolo[3,4-d] pyrimidin-4(5H)-one] | 0.31
Cc1nc2c(c(CC(O)C(F)(F)F)nn2C(C)c2ccc(C(F)(F)F)cc2)c(=O)[nH]1 (single isomer, unassigned) [Example 240] | 434
Cc1nc2c(c(CO)nn2C(C)c2ccc(C(F)(F)F)c(I)c2)c(=O)[nH]1 (single isomer, unassigned) [Example 139, (S)- or (R)-3-(Hydroxymethyl)-1-(1-(3-iodo-4-(trifluoromethyl-)phenyl)ethyl)-6-methyl-1,5-dihydro-4H-pyrazolo[3,4-d]pyrimidin-4-one] | 5.6
Cc1nc2c(c(CC(F)(F)F)nn2C(c2ccc(C(F)(F)F)c(F)c2)C(C)(C)C)c(=O)[nH]1 (single isomer, unassigned) [Example 61, (S)- or (R)-1-(1-(3-Fluoro-4-(trifluoromethyl)phenyl)-2,2-dimethylpropyl)-6-methyl-3-(2,2,2-trifluoroethyl)-1H-pyrazolo[3,4-d]pyrimidin-4(5H)-one] | 55
CCc1nc2c(c(C(F)F)nn2C(C)c2ccc(C(F)(F)F)cc2)c(=O)[nH]1 (single isomer, unassigned) [Example 190, (S)- or (R)-3-(Difluoromethyl)-6-ethyl-1-(1-(4-(trifluoromethyl)-phenyl)ethyl)-1,5-dihydro-4H-pyrazolo[3,4-d]pyrimidin-4-one] | 2.7
Cc1nc2c(c(CO)nn2C(C)c2ccc(C(F)(F)F)s2)c(=O)[nH]1 (single isomer, unassigned) [Example 155, (R)- or (S)-3-(Hydroxymethyl)-6-methyl-1-(1-(5-(trifluoromethyl)thiophen-2-yl)ethyl)-1H-pyrazolo[3,4-d]pyrimidin-4(5H)-one] | ~1630
